Measurements reported in PMC7462607 (eLife, 2020).
Where “and” joins values, the source holds several entries; their conditions need not be identical. Identical values can stand only once.

Legend:
[1] = tested on: CDK12 G731E or G731R knock-in A549 cells; test: Cell viability assay, CDK12 G731E or G731R knock-in A549 cells; type: cell-based; conditions: Homo sapiens, four knock-in clones
Protocol: Seven hundred A549 cells or 1,000 HCT-116 cells in 50 µL of medium were plated per well in 384-well flat clear bottom white polystyrene TC-treated microplates (Corning, Corning, USA). After overnight attachment, cells were dosed with a serial dilution of HQ461 with a D300e digital dispenser (Tecan, Männedorf, Switzerland). Cell survival was measured 72 hr later using CellTiter-Glo luminescent cell viability assay kit (Promega, Madison, USA) following vendor instructions. Luminescence was recorded by EnVison multimode plate reader (PerkinElmer, Waltham, USA). IC50 was determined with GraphPad Prism using baseline correction (by normalizing to DMSO control), the asymmetric (five parameter) equation, and least squares fit.
An sgRNA targeting CDK12 (5’-[…]-3’) was cloned into the pSpCas9(BB)−2A-eGFP (PX458) vector (Addgene 48138). For CDK12 G731E/R knock-in, 1 million A549 cells were nucleofected (using 4D-Nucleofector, Lonza, Basel, Switzerland) with PX458-sgCDK12 and single-stranded oligodeoxynucleotides (G731E: 5’-ttatatacttggccataggttccttctccaataatTTCaataatgtcaaacttgtccacacagcgtttcccccagtc-3’; G731R: 5’-ttatatacttggccataggttccttctccaataatGCGaataatgtcaaacttgtccacacagcgtttcccccagtc-3’). Afterwards, cells were exposed to 5 µM 0461 for 2 weeks to select for cells with CDK12 G731E/R knock-in. […]

[2] = target: T1, FLAG-Avi-DDB1 and His-CDK12KD/His-CCNKΔC (WT) (Homo sapiens, UniProt Q9NYV4); test: AlphaScreen assay, WT; type: binding; conditions: for AlphaScreen: raw signal
T1 construct: Human CDK12KD (residues 715–1052); made in house; host or cells: Sf9 or High Five (CDK12KD/CCNKΔC, co-infected with yeast CAK1); 293F with BirA (FLAG-Avi-DDB1)
T1 sequence (Q9NYV4 715-1052 limits assumed, stated change not applied): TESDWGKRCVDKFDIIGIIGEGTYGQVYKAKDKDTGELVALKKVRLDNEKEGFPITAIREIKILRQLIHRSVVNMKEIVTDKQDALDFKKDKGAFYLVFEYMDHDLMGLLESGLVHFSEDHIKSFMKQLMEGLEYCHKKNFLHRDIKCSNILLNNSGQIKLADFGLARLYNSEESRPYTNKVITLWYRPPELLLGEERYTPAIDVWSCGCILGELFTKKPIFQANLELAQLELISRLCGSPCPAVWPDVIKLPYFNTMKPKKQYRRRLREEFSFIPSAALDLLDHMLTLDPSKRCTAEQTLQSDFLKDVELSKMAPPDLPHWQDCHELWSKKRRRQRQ
T1 sequence (O75909 11-267 partner limits assumed): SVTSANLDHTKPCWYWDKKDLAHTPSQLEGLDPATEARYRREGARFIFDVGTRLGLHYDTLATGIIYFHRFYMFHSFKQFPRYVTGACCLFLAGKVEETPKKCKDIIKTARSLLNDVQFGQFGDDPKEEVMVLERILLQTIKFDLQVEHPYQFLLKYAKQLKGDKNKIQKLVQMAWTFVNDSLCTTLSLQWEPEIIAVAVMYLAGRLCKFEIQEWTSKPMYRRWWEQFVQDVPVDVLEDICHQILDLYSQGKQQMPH
T1 sequence (Q16531 whole entry partner, the tested form may be a part): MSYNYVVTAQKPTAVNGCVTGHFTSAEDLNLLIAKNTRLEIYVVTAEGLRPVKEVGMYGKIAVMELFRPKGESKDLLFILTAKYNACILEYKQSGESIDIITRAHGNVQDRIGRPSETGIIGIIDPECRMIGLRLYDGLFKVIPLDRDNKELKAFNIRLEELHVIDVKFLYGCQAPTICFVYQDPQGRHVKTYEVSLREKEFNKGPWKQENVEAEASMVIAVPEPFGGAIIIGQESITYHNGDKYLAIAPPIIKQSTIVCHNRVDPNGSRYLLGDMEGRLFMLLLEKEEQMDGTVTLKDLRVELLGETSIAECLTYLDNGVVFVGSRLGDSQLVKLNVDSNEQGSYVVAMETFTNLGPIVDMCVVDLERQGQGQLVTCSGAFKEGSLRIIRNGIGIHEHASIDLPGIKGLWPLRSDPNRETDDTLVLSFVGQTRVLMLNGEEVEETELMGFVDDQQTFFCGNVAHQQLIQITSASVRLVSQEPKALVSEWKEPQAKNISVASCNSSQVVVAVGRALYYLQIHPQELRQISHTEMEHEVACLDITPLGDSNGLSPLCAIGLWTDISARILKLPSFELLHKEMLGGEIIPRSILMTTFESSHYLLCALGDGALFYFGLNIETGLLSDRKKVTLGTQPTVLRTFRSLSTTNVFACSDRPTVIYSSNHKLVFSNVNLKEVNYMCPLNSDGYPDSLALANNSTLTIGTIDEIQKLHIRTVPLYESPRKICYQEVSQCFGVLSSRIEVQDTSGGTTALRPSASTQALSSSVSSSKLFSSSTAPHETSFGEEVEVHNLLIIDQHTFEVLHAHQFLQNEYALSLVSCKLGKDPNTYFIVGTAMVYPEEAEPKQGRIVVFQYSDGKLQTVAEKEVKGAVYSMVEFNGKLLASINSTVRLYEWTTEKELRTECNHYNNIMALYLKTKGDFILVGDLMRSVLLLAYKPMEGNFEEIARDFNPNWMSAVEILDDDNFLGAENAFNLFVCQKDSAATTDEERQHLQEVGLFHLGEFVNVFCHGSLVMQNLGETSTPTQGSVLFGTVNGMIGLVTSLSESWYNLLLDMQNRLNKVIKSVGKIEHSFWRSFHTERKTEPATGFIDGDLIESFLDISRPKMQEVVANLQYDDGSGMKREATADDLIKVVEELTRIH
Protocol: Biotinylated FLAG-Avi-DDB1 (3 µM) and 6xHis-CDK12KD/6xHis-CCNKΔC (WT or G731E/R mutants) (3 µM) were mixed in an assay buffer (50 mM HEPES, pH7.5, 300 mM NaCl, 0.5 mM TCEP, 0.1% NP-40, 0.1% BSA) and a serial dilution of HQ461.The protein-compound mix was transferred to 384-well plates (Corning, Corning, USA); 15 μL per well. After a 1 hr room temperature incubation, 10 µL of nickel chelate (Ni-NTA) acceptor beads (PerkinElmer, Waltham, USA, Waltham, USA, 6760619C) (1:100 diluted with assay buffer) was added per well. After incubation in the dark for 1 hr at room temperature, 10 μL of streptavidin donor beads (PerkinElmer, Waltham, USA, 6760619C) (1:100 diluted in assay buffer) was added per well. After another 1 hr incubation, AlphaScreen signal was measured on the EnVision multimode plate reader (PerkinElmer, Waltham, USA). For THZ531 competition, FLAG-Avi-DDB1, 6xHis-CDK12KD/6xHis-CCNKΔC mix was preincubated with 5 μM of THZ531 for 30 min on ice followed by the procedures described above.

[3] = tested on: POLII CTD Serine 2 phosphorylation; test: Western blotting of POLII CTD Serine 2 phosphorylation; type: cell-based, Homo sapiens
Protocol: Standard SDS-PAGE and western blotting procedures were used with the following modifications. For preparation of total lysates, cells were rinsed with DPBS to remove residual medium and then lysed in 20 mM HEPES-NaOH, pH 8.0, 10 mM NaCl, 2 mM MgCl2, 1% SDS freshly supplemented with 0.5 units/µL of benzonase and 1x cOmplete, Mini, EDTA-free protease inhibitor cocktail (Roche, Bazel, Switzerland). Protein concentrations of the resulting lysates were quantified by the BCA method. Between 30 to 60 µg of proteins were resolved on SDS-PAGE and transferred to nitrocellulose membranes with a pore size of 0.5 μm. Membranes were blocked in 5% nonfat milk PBST (0.1% v/v Tween-20) for 30 min before blotting with antibodies. […]

Cc1cccc(Nc2nc(CC(=O)Nc3ncc(C)s3)cs2)n1 [HQ461, 2-(2-((6-methylpyridin-2-yl)amino)thiazol-4-yl)-N-(5-methylthiazol-2-yl)acetamide]
IC50 [1]: 25.2 to 36.5 µM | AlphaScreen ([2]; WT + 5 µM THZ531, HQ461 2.22e-6 M): 1078 and 1062 and 921 | AlphaScreen ([2]; WT + 5 µM THZ531, HQ461 6.67e-6 M): 1168 and 926 and 865 | AlphaScreen ([2]; WT + 5 µM THZ531, HQ461 2e-5 M): 1307 and 1119 and 970 | AlphaScreen ([2]; WT + 5 µM THZ531, HQ461 2.47E-07 M): 1065 and 1007 and 926 | AlphaScreen ([2]; WT + 5 µM THZ531, HQ461 2.74E-08 M): 1128 and 949 and 821 | AlphaScreen ([2]; WT + 5 µM THZ531, HQ461 7.41E-07 M): 1120 and 993 and 799 | AlphaScreen ([2]; WT + 5 µM THZ531, HQ461 8.23E-08 M): 1054 and 1033 and 906 | AlphaScreen ([2]; WT, HQ461 2.22e-6 M): 11213 and 9188 and 8788 | AlphaScreen ([2]; WT, HQ461 6.67e-6 M): 16665 and 12816 and 13014 | AlphaScreen ([2]; WT, HQ461 2e-5 M): 20710 and 15836 and 15276 | AlphaScreen ([2]; WT, HQ461 2.47E-07 M): 4781 and 3382 and 3265 | AlphaScreen ([2]; WT, HQ461 2.74E-08 M): 2625 and 1724 and 1469 | AlphaScreen ([2]; WT, HQ461 7.41E-07 M): 7377 and 5649 and 5718 | AlphaScreen ([2]; WT, HQ461 8.23E-08 M): 2916 and 2037 and 1777 | EC50 ([2]; WT, read-out: apparent EC50 of CDK12KD/CCNKΔC/DDB1 complex formation): 1.9 µM | inhibitory effect on POLII CTD Serine 2 phosphorylation ([3]; A549 with CDK12 G731E or G731R mutation): abolished | POLII CTD Serine 2 phosphorylation ([3]; parental A549): reduced POLII CTD Serine 2 phosphorylation
